Reference: patent US20100273780A1, “SUBSTITUTED 8-HETEROARYL XANTHINES” (PGXHEALTH, LLC, priority 2003, published 2010)

Molecular target: T1, rat A2B receptors (rA2B) (Rattus norvegicus, UniProt P29276)
T1 construct: expressed in transfected cells; host or cells: HEK-293 cells, stably transfected (G418 selection); membranes
T1 sequence (P29276 1-332): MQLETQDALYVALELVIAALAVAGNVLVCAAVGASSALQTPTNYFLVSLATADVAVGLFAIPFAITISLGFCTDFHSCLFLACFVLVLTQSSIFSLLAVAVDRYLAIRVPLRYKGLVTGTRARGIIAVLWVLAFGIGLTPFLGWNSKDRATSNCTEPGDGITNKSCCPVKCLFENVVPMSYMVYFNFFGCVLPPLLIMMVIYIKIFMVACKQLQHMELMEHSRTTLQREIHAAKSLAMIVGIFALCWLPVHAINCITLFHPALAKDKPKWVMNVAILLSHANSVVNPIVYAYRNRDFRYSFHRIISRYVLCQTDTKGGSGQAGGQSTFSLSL
Test: Radioligand competition binding (125I-ABOPX) at rat A2B receptors in HEK-293 membranes
Conditions: displacement of specific [125I]ABOPX binding at rat A2B receptors expressed in HEK-293 cells; read-out: RatA2B Ki
Experimental: The plasmid was amplified in competent JM109 cells and plasmid DNA isolated using Wizard Megaprep columns (Promega Corporation, Madison, Wis.).
Transfected HEK cells were grown under 5% CO2/[…] humidified atmosphere at a temperature of 37° C. Colonies were selected by growth of cells in 0.6 mg/mL G418. Transfected cells were maintained in DMEM supplemented with Hams F12 nutrient mixture (1/1), 10% newborn calf serum, 2 mM glutamine and containing 50 IU/mL penicillin, […], and 0.2 mg/mL Geneticin (G418, Boehringer Mannheim). Cells were cultured in 10 cm diameter round plates and subcultured when grown confluent (approximately after 72 hours).
At A2B receptors: Confluent monolayers of HEK-A2B cells were washed with PBS followed by ice cold Buffer A (10 mM HEPES, 10 mM EDTA, pH 7.4) with protease inhibitors (10 μg/mL benzamidine, 100 μM phenylmethanesulfonyl fluoride, and 2 μg/mL of each aprotinin, pepstatin and leupeptin). The cells were homogenized in a Polytron (Brinkmann) for 20 s, centrifuged at 30,000×g, and the pellets washed twice with buffer HE (10 mM HEPES, 1 mM EDTA, pH 7.4 with protease inhibitors). The final pellet was resuspended in buffer HE, supplemented with 10% sucrose and frozen in aliquots at −80° C. For binding assays membranes were thawed and diluted 5-10 fold with HE to a final protein concentration of approximately 1 mg/mL. To determine protein concentrations, membranes, and bovine serum albumin standards were dissolved in 0.2% NaOH/0.01% SDS and protein determined using fluorescamine fluorescence. Stowell, C.
After incubation, 20 minutes at room temperature, 50 μL, of 10 mg/mL Na-metabisulfite in water was added to quench the reaction. The reaction mixture was applied to a C18 HPLC column, eluting with a mixture of methanol and 5 mM phosphate, pH 6.0. After 5 min at 35% methanol, the methanol concentration was ramped to 100% over 15 min.
Radioligand binding experiments were performed in triplicate with 20-25 μg membrane protein in a total volume of 0.1 mL HE buffer supplemented with 1 U/mL adenosine deaminase and 5 mM MgCl2. The incubation time was 3 h at 21° C. Nonspecific binding was measured in the presence of 100 μM NECA. […] Membranes were filtered on Whatman GF/C filters using a Brandel cell harvester (Gaithersburg, Md.) and washed 3 times over 15-20 seconds with ice cold buffer (10 mM Tris, 1 mM MgCl2, pH 7.4). Bmax and KD values were calculated by Marquardt's nonlinear least squares interpolation for single a site binding models. Marquardt, D. M., J. Soc. Indust. Appl. […] Ki values for different compounds were derived from IC50 values as described. Linden, J., J. Cycl. Nucl. […] Data from replicate experiments are tabulated as means±SEM.

Molecule | Ki [nM]
1,3-Dipropyl-8-[6-[N-(isoxazole-5-carbonyl)methylamino]-3-pyridyl)xanthine [Compound 110] | < 500
1,3-diallyl-8-[6-(N-(6-chloronicotinoyl)methylamino)-3-pyridyl]xanthine [Compound 120] | < 100
CCn1c(=O)c2[nH]c(-c3ccc(N(CCOC)C(=O)Nc4ccncc4)nc3)nc2n(CC)c1=O [Compound 95] | < 500
CCCn1c(=O)c2[nH]c(-c3ccc(NCCO)nc3)nc2n(CCC)c1=O [Compound 4, 1,3-Dipropyl-8-(6-(2-hydroxyethyl)amino-3-pyridyl)xanthine] | < 500
1-Cyclopropyl-3-propyl-8-[6-[N-nicotinoylmethylamino]-3-pyridyl)xanthine [Compound 129] | < 100
CNc1ccc(-c2nc3c([nH]2)c(=O)n(C)c(=O)n3C)cn1 [Compound 97, 1,3-Dimethyl-8-(6-methylamino-3-pyridyl)xanthine] | < 500
CCCn1c(=O)c2[nH]c(-c3ccc(NCC(OC)OC)nc3)nc2n(CCC)c1=O [Compound 14, 1,3-Dipropyl-8-[6-(2,2-dimethoxyethyl)amino-3-pyridyl]xanthine] | < 500
1,3-Dipropyl-8-[6-[N-(2-pyrazinecarbonyl)methylamino]-3-pyridyl)xanthine [Compound 109] | < 500
CCCn1c(=O)c2[nH]c(-c3ccc(NCc4ccc(CN)cc4)nc3)nc2n(CCC)c1=O [Compound 21, 1,3-Dipropyl-8-[6-(4-aminomethylbenzylamino)-3-pyridyl]xanthine] | < 500
1-Cyclopropylmethyl-3-ethyl-8-[6-[N-(6-chloronicotinoyl)methylamino]-3-pyridyl)xanthine [Compound 145] | < 100
1,3-Diethyl-8-[6-(N-(6-chloronicotinoyl)methylamino)-3-pyridyl]xanthine [Compound 130] | < 100
CCCn1c(=O)c2[nH]c(-c3ccc(NC)nc3)nc2n(CCC)c1=O [Compound 10, 1,3-Dipropyl-8-(6-methylamino-3-pyridyl)xanthine] | < 500
CCn1c(=O)c2[nH]c(-c3ccc(N(CC4CC4)C(=O)c4cccnc4)nc3)nc2n(CC)c1=O [Compound 144, 1,3-Diethyl-8-[6-[N-nicotinoylcyclopropylmethylamino]-3-pyridyl)xanthine] | < 500
CCCn1c(=O)c2[nH]c(-c3ccc(N4CCN(C(C)=O)CC4)nc3)nc2n(CCC)c1=O [Compound 5, 1,3-Dipropyl-8-[6-(4-acetylpiperazinyl)-3-pyridyl]xanthine] | < 500
CCCn1c(=O)c2[nH]c(-c3ccc(N4CCCC4)nc3)nc2n(CCC)c1=O [Compound 8, 1,3-Dipropyl-8-(6-pyrrolidinylpyrid-3-yl)xanthine] | < 500
1,3-Diethyl-8-[6-[N-nicotinoylethylamino]-3-pyridyl)xanthine [Compound 62] | < 500
1,3-Diethyl-8-[6-[(N-phenylcarbamoyl)methylamino]-3-pyridyl)xanthine [Compound 61] | < 5000
CCCn1c(=O)c2[nH]c(-c3ccc(Cl)nc3)nc2n(CCc2ccc(OC)cc2)c1=O [Compound 54, 1-propyl-3-(4-methoxyphenyl)ethyl-8-(6-chloro-3-pyridyl)xanthine] | < 5000
CCCn1c(=O)c2[nH]c(-c3ccc(N4CCNCC4)nc3)nc2n(CCC)c1=O [Compound 19, 1,3-Dipropyl-8-(6-piperazino-3-pyridyl)xanthine] | < 500
CCCn1c(=O)c2[nH]c(-c3ccc(NCCOCCO)nc3)nc2n(CCC)c1=O [Compound 18, 1,3-Dipropyl-8-[[6-(2-hydroxyethoxy)ethylamino]-3-pyridy]xanthine] | < 500
CCN(C(=O)c1cccnc1)c1ccc(-c2nc3c([nH]2)c(=O)n(CC2CC2)c(=O)n3CC2CC2)cn1 [Compound 70, 1,3-Dicylopropylmethyl-8-[6-[N-nicotinoylethylamino]-3-pyridyl)xanthine] | < 500
CCCn1c(=O)c2[nH]c(-c3ccc(NCC(C)O)nc3)nc2n(CCC)c1=O (centres unmarked) [Compound 13, 1,3-Dipropyl-8-[6-(2-hydroxypropyl)amino-3-pyridyl]xanthine] | < 500
CCCn1c(=O)c2[nH]c(-c3ccc(NC4CC4)nc3)nc2n(CCC)c1=O [Compound 23, 1,3-Dipropyl-8-(6-cyclopropylamino-3-pyridyl]xanthine] | < 500
C#CCn1c(=O)c2[nH]c(-c3ccc(N(CCOC)C(=O)c4cccnc4)nc3)nc2n(C)c1=O [Compound 100, 1-Propargyl, 3-methyl-8-[6-[N-nicotinoyl, N-(2-methoxyethyl)amino]-3-pyridyl)xanthine] | < 5000
1,3-Dipropyl-8-[6-[N-isonicotinoylmethylamino]-3-pyridyl)xanthine [Compound 49] | < 100

Next, values leading:

Ki [nM] | Molecule
< 100 | CCCn1c(=O)c2[nH]c(-c3ccc(NCCc4ccccn4)nc3)nc2n(CCC)c1=O [Compound 78, 1,3-Dipropyl-8-[6-[2-(2-pyridyl)-ethylamino]-3-pyridyl]xanthine]
< 500 | CCCn1c(=O)c2[nH]c(-c3ccc(Cl)nc3)nc2n(CCC)c1=O [Compound 1, 1,3-Dipropyl-8-(6-chloro-3-pyridyl)xanthine]
< 500 | CCCn1c(=O)c2[nH]c(-c3ccc(NCCNC(C)=O)nc3)nc2n(CCC)c1=O [Compound 83, 1,3-Dipropyl-8-(6-(2-acetylaminoethyl)amino-3-pyridyl)xanthine]
< 100 | CCCn1c(=O)c2[nH]c(-c3ccc(N4CCOCC4)nc3)nc2n(CCC)c1=O [Compound 16, 1,3-Dipropyl-8-(6-morpholino-3-pyridyl)xanthine]
< 100 | CCCn1c(=O)c2[nH]c(-c3ccc(N4CCCNCC4)nc3)nc2n(CCC)c1=O [Compound 58, 1,3-Dipropyl-8-[6-(hexahydro-1,4-diazaepin-1-yl)-3-pyridyl]xanthine]
< 100 | CCn1c(=O)c2[nH]c(-c3ccc(NCc4cccnc4)nc3)nc2n(CC)c1=O [Compound 74, 1,3-Diethyl-8-[6-(3-pyridylmethylamino)-3-pyridyl]xanthine]
< 100 | CCCn1c(=O)c2[nH]c(-c3ccc(NC(C)CO)nc3)nc2n(CCC)c1=O (centres unmarked) [Compound 15, 1,3-Dipropyl-8-[6-(1-hydroxy-2-propyl)amino-3-pyridyl]xanthine]
< 100 | CCn1c(=O)c2[nH]c(-c3ccc(NCCN4CCCC4)nc3)nc2n(CC)c1=O [Compound 81, 1,3-Diethyl-8-[6-[2-(1-pyrrolidinyl)-ethylamino]-3-pyridyl]xanthine]
< 100 | CCCn1c(=O)c2[nH]c(-c3ccc(N4CCCN(C)CC4)nc3)nc2n(CCC)c1=O [Compound 9, 1,3-Dipropyl-8-{6-[4-methyl(perhydro-1,4-diazaepin-1-yl)]-3pyridyl}xanthine]
< 100 | CCCn1c(=O)c2[nH]c(-c3ccc(N(C)C(=O)c4ccc(C(F)(F)F)nc4)nc3)nc2n(CCC)c1=O [Compound 121, 1,3-dipropyll-8-[6-(N-[6-(trifluoromethyl)nicotinoyl]methylamino)-3-pyridyl]xanthine]
< 100 | CCCn1c(=O)c2[nH]c(-c3ccc(N(C)C(=O)c4cc(C)on4)nc3)nc2n(CCC)c1=O [Compound 111, 1,3-Dipropyl-8-[6-[N-(5-methylisoxazol-3-yl-3-carbonyl)methylamino]-3-pyridyl)xanthine]
< 100 | CCn1c(=O)c2[nH]c(-c3ccc(NCc4cccc(OC)c4)nc3)nc2n(CC)c1=O [Compound 75, 1,3-Diethyl-8-[6-(3-methoxybenzylamino)-3-pyridyl]xanthine]
< 100 | CCn1c(=O)c2[nH]c(-c3ccc(NCc4ccccn4)nc3)nc2n(CC)c1=O [Compound 73, 1,3-Diethyl-8-[6-(2-pyridylmethylamino)-3-pyridyl]xanthine]
